Patent publication US20230108125A1, “SMALL MOLECULE COMPOUNDS” (Apertor Pharmaceuticals, Inc., priority 2021, published 2023)

Tested on: Saccharomyces cerevisiae BY4742
Assay: Anti-yeast activity assay (minimum inhibitory concentration)
Type: cell-based
Details: YPD media, 30° C., 16 hours, lowest concentration with no obvious culture growth, triplicate, read-out: MIC against Saccharomyces cerevisiae BY4742
Procedure: A single colony of Saccharomyces cerevisiae BY4742 was inoculated into 2 mL YPD media in a 5 mL falcon tube to grow overnight at 30° C. The overnight culture was inoculated into 5 mL YPD media in a glass tube at OD600=0.1, and the new culture was grown at 30° C. until OD600 reached 0.5. The culture was then diluted to OD600=0.01 and aliquoted into 96-well plates at 100 μL per well. The compound was dissolved in ethanol at 75 μM. Three-fold serial dilutions were conducted for the Compound 10 times using ethanol, respectively. 4 μL of each concentration compound solution was added and mixed with 384 μL YPD media. 100 μL of the YPD media solutions were mixed with the Saccharomyces cerevisiae cultures in 96-well plates by pipette, respectively. The plates were incubated at 30° C. for 16 hours without shaking. The lowest Compound concentrations in wells that have no obvious culture growth were defined as the minimum inhibitory concentrations (MICs). The assays were conducted in triplicate.

MIC [µM] | Compound
< 0.0556 | CO[C@H]1C[C@@H]2CC[C@@H](C)[C@@](O)(O2)C(=O)C(=O)N2CCCC[C@H]2C(=O)O[C@H]([C@H](C)C[C@@H]2CC[C@@H](O)[C@H](OC)C2)CC(=O)C/C=C(\C)[C@@H](O)[C@@H](OC)C(=O)[C@H](C)C[C@H](C)/C=C/C=C/C=C/1C [Compound 10, (3S,7E,9R,10R,12R,14S,15E,17E,19E,21S,23S,26R,27R,34aS)-9,27-dihydroxy-3-((R)-1-((1S,3R,4R)-4-hydroxy-3-methoxycyclohexyl)propan-2-yl)-10,21-dimethoxy-8,12,14,20,26-pentamethyl-9,10,12,13,14,21,22,23,24,25,26,27,32,33,34,34a-hexadecahydro-3H-23,27-epoxypyrido[2,1-c][1]oxa[4]azacyclohentriacontine-1,5,11,28,29(4H,6H,31H)-pentaone]
< 0.0556 | CO[C@H]1C[C@@H]2CCC[C@@](O)(O2)C(=O)C(=O)N2CCCC[C@H]2C(=O)O[C@H]([C@H](C)C[C@@H]2CC[C@@H](O)[C@H](OC)C2)CC(=O)[C@H](C)/C=C(\C)[C@@H](O)[C@@H](OC)C(=O)[C@H](C)C[C@H](C)/C=C/C=C/C=C/1C [Compound 12, (3S,6R,7E,9R,10R,12R,14S,15E,17E,19E,21S,23S,27R,34aS)-9,27-dihydroxy-3-((R)-1-((1S,3R,4R)-4-hydroxy-3-methoxycyclohexyl)propan-2-yl)-10,21-dimethoxy-6,8,12,14,20-pentamethyl-9,10,12,13,14,21,22,23,24,25,26,27,32,33,34,34a-hexadecahydro-3H-23,27-epoxypyrido[2,1-c][1]oxa[4]azacyclohentriacontine-1,5,11,28,29(4H,6H,31H)-pentaone]
< 0.0556 | CO[C@@H]1/C(C)=C/C=C/C=C/[C@@H](C)C[C@@H](C)C(=O)[C@H](OC)[C@H](O)/C(C)=C/[C@@H](C)C(=O)C[C@@H]([C@H](C)C[C@@H]2CC[C@@H](O)[C@H](OC)C2)OC(=O)[C@@H]2CCCCN2C(=O)C(=O)[C@]2(O)O[C@@H](CC[C@H]2C)[C@@H]1C [Compound 15, (3S,6R,7E,9R,10R,12R,14S,15E,17E,19E,21S,22S,23S,26R,27R,34aS)-9,27-dihydroxy-3-((R)-1-((1S,3R,4R)-4-hydroxy-3-methoxycyclohexyl)propan-2-yl)-10,21-dimethoxy-6,8,12,14,20,22,26-heptamethyl-9,10,12,13,14,21,22,23,24,25,26,27,32,33,34,34a-hexadecahydro-3H-23,27-epoxypyrido[2,1-c][1]oxa[4]azacyclohentriacontine-1,5,11,28,29(4H,6H,31H)-pentaone]
